T/C data for 25 compounds are collected here from PubChem BioAssay AID330 (DTP/NCI, 2004).

The structures appear in SMILES notation. Values joined by “and” are separate entries in the source; they are usually repeats but may differ in a detail not shown here. Equal entries are not always repeated. Inconclusive results and toxic doses are left out.

The experiment deals with P388 leukemia ip, CD2F1 mice, survival T/C. Nature of the experiment: NCI In Vivo Anticancer Drug Screen. Data for tumor model P388 Leukemia (intraperitoneal) in CD2F1 (CDF1) mice. The settings on record: endpoint: median survival time, higher = longer survival. In a few lines:
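Mice carrying the transplanted tumor received test compound or vehicle. Survival was recorded in each group, and the value is the treated-group measurement divided by that of the vehicle-treated control group.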

The mark [1] stands for this setting: dose: 50.0 mg/kg/injection, schedule: Q01DX009 (ip), vehicle: saline.
The mark [2] stands for this setting: dose: 100.0 mg/kg/injection, schedule: Q01DX009 (ip), vehicle: saline.
Where [3] appears, read: dose: 50.0 mg/kg/injection, schedule: Q01DX005 (ip), vehicle: saline with Tween-80.
Setting [4] is: dose: 100.0 mg/kg/injection, schedule: Q01DX005 (ip), vehicle: saline with Tween-80.
Where [5] appears, read: dose: 200.0 mg/kg/injection, schedule: Q01DX005 (ip), vehicle: saline with Tween-80.
Where [6] appears, read: dose: 12.5 mg/kg/injection, schedule: Q01DX009 (ip), vehicle: saline.
Where [7] appears, read: dose: 6.25 mg/kg/injection, schedule: Q01DX009 (ip), vehicle: saline.
The mark [8] stands for this setting: dose: 50.0 mg/kg/injection, schedule: Q04DX003 (ip), vehicle: saline.
The mark [9] stands for this setting: dose: 100.0 mg/kg/injection, schedule: Q01DX001 (ip), vehicle: Klucel (hydroxypropylcellulose) (HPC).
Where [10] appears, read: dose: 200.0 mg/kg/injection, schedule: Q01DX001 (ip), vehicle: Klucel (hydroxypropylcellulose) (HPC).
Where [11] appears, read: dose: 400.0 mg/kg/injection, schedule: Q01DX001 (ip), vehicle: Klucel (hydroxypropylcellulose) (HPC).
The mark [12] stands for this setting: dose: 25.0 mg/kg/injection, schedule: Q04DX003 (ip), vehicle: saline.
The mark [13] stands for this setting: dose: 12.5 mg/kg/injection, schedule: Q01DX009 (ip), vehicle: distilled water + Tween-80.
Where [14] appears, read: dose: 25.0 mg/kg/injection, schedule: Q01DX009 (ip), vehicle: distilled water + Tween-80.
The mark [15] stands for this setting: dose: 50.0 mg/kg/injection, schedule: Q01DX009 (ip), vehicle: distilled water + Tween-80.
[16] abbreviates: dose: 100.0 mg/kg/injection, schedule: Q01DX009 (ip), vehicle: distilled water + Tween-80.
Setting [17] is: dose: 60.0 mg/kg/injection, schedule: Q01DX005 (ip), vehicle: saline with Tween-80.
Where [18] appears, read: dose: 120.0 mg/kg/injection, schedule: Q01DX005 (ip), vehicle: saline with Tween-80.
The mark [19] stands for this setting: dose: 240.0 mg/kg/injection, schedule: Q01DX005 (ip), vehicle: saline with Tween-80.

For the compound `NC(CCl)=NCc1ccccc1`, the T/C reads like this: (dose: 7.5 mg/kg/injection, schedule: Q01DX005 (ip), vehicle: saline) 99 % of control; (dose: 15.0 mg/kg/injection, schedule: Q01DX005 (ip), vehicle: saline) 96 % of control; (dose: 30.0 mg/kg/injection, schedule: Q01DX005 (ip), vehicle: saline) 111 % of control.
As to `O=Cc1coc2ccccc2c1=O`, the T/C was 120 % of control (dose: 25.0 mg/kg/injection, schedule: Q01DX009 (ip), vehicle: saline); 110 % of control under setting [1]; 119 % of control and 120 % of control under setting [2].
As for `O=C(c1ccccc1)c1cc([N+](=O)[O-])cc([N+](=O)[O-])c1`, the T/C reads like this: (dose: 100.0 mg/kg/injection, schedule: Q01DX009 (ip), vehicle: saline with Tween-80) 104 % of control; (dose: 200.0 mg/kg/injection, schedule: Q01DX009 (ip), vehicle: saline with Tween-80) 97 % of control; (dose: 400.0 mg/kg/injection, schedule: Q01DX009 (ip), vehicle: saline with Tween-80) 97 % of control.
In the case of `O=C1c2c(c(Cl)c3ccccc3c2O)C(=O)C2C3C=CC(C3)C12` (centres undefined), the T/C reads like this: under setting [3], 96 % of control; under setting [4], 89 % of control; under setting [5], 89 % of control.
`Oc1ccccc1C=NCCC[N-]CCCN=Cc1ccccc1O.[Co]`: the T/C was 113 % of control under setting [6] and 119 % of control under setting [2].
With `[CH3][Ge]([CH3])([Cl])[c]1cc[c]([Ge]([CH3])([CH3])[Cl])cc1`, the T/C by setting is: (dose: 3.12 mg/kg/injection, schedule: Q01DX009 (ip), vehicle: saline) 96 % of control; under setting [7], 94 % of control; under setting [6], 113 % of control and 92 % of control; under setting [1], 110 % of control; under setting [8], 118 % of control; (dose: 100.0 mg/kg/injection, schedule: Q04DX003 (ip), vehicle: saline) 89 % of control.
On to `COC(=O)C1=C(C)NC(C)=C(C(=O)OC)C1c1ccc(Cl)c([N+](=O)[O-])c1`, for which the T/C was 99 % of control under setting [3], 96 % of control under setting [4] and 92 % of control under setting [5].
In the case of `CCC1(O)C(=O)OCc2c1cc1n(c2=O)Cc2cc3cc4c(cc3nc2-1)OCO4` (centres undefined), the T/C runs as follows: (dose: 1.0 mg/kg/injection, schedule: Q01DX005 (ip), vehicle: saline with Tween-80) 177 % of control; (dose: 2.0 mg/kg/injection, schedule: Q01DX005 (ip), vehicle: saline with Tween-80) 86 % of control.
As to `CN1CCC(/C=C/c2cccc3ccccc23)CN1` (centres undefined) (tested in a mixture with another compound), the T/C reads like this: under setting [1], 108 % of control; under setting [2], 99 % of control.
For `COc1ccccc1N=C(C1=C(O)c2ccccc2C1=O)c1ccccc1`, the T/C runs as follows: (dose: 100.0 mg/kg/injection, schedule: Q04DX002 (ip), vehicle: saline with Tween-80) 100 % of control; (dose: 200.0 mg/kg/injection, schedule: Q04DX002 (ip), vehicle: saline with Tween-80) 102 % of control; (dose: 400.0 mg/kg/injection, schedule: Q04DX002 (ip), vehicle: saline with Tween-80) 94 % of control.
For `Clc1c(Br)c(-c2ccccc2)nc2ccccc12`, the T/C is, setting by setting: under setting [3], 108 % of control; under setting [4], 110 % of control; under setting [5], 108 % of control.
For the compound `O=C(Cc1nc2ccccc2[nH]1)N/N=C1\SCC(=O)N1C1CCCCC1`, the T/C is 98 % of control under setting [9], 100 % of control under setting [10] and 99 % of control under setting [11].
In the case of `C=CCNCCN1CCN(CCCN2c3ccccc3Sc3ccc(C(F)(F)F)cc32)CC1`, the T/C was 91 % of control under setting [12]; 119 % of control and 97 % of control under setting [8].
On to `Cc1ccc(S(=O)(=O)N/N=C/c2c(-c3ccccc3)nc3n2CCS3)cc1`, for which the T/C under setting [9] is 99 % of control, the T/C under setting [10] was 93 % of control and the T/C under setting [11] is 94 % of control.
For the compound `O=C(NC(Cc1ccc(OC(=O)OCc2ccccc2)cc1)C(=O)O)OCc1ccccc1` (centres undefined), the T/C is 99 % of control under setting [3], 90 % of control under setting [4] and 101 % of control under setting [5].
Consider `Cc1ccc(S(=O)(=O)n2cccn2)cc1`, for which the T/C reads like this: (dose: 6.25 mg/kg/injection, schedule: Q01DX009 (ip), vehicle: distilled water + Tween-80) 95 % of control; under setting [13], 100 % of control; under setting [14], 94 % of control; (dose: 25.0 mg/kg/injection, schedule: Q01DX009 (ip), vehicle: other) 88 % of control; under setting [15], 105 % of control; under setting [16], 99 % of control. Also, the T/C is 113 % of control (dose: 100.0 mg/kg/injection, schedule: Q01DX009 (ip), vehicle: other); 104 % of control (dose: 200.0 mg/kg/injection, schedule: Q01DX009 (ip), vehicle: other); 112 % of control (dose: 400.0 mg/kg/injection, schedule: Q01DX009 (ip), vehicle: other).
On to `O=NN1CCNC1=O`, for which the T/C is 113 % of control (dose: 1.5 mg/kg/injection, schedule: Q04DX003 (ip), vehicle: saline); 168 % of control under setting [7]; 245 % of control under setting [6]; 163 % of control (dose: 12.5 mg/kg/injection, schedule: Q04DX003 (ip), vehicle: saline); 187 % of control (dose: 16.5 mg/kg/injection, schedule: Q04DX003 (ip), vehicle: saline); 187 % of control and 213 % of control under setting [12].
As for `CC1(C)CC2(Nc3ccccc3N2)C2=C(O1)C(=O)OC2`, the T/C under setting [17] is 101 % of control, the T/C under setting [18] is 103 % of control and the T/C under setting [19] was 92 % of control.
For `CC(C)SC(=S)Nc1cc(C(F)(F)F)ccc1Cl`, the T/C under setting [1] is 100 % of control; the T/C under setting [2] is 101 % of control; the T/C (dose: 200.0 mg/kg/injection, schedule: Q01DX009 (ip), vehicle: saline) is 99 % of control.
As to `COc1ccc(/C=C2/N=C(c3ccc(Cl)c(Cl)c3)OC2=O)cc1OC`, the T/C is, setting by setting: (dose: 50.0 mg/kg/injection, schedule: Q01DX005 (ip), vehicle: Klucel (hydroxypropylcellulose) (HPC)) 90 % of control; (dose: 100.0 mg/kg/injection, schedule: Q01DX005 (ip), vehicle: Klucel (hydroxypropylcellulose) (HPC)) 88 % of control; (dose: 200.0 mg/kg/injection, schedule: Q01DX005 (ip), vehicle: Klucel (hydroxypropylcellulose) (HPC)) 94 % of control.
As to `[Se]=[Mo]=[Se]`, the T/C is, setting by setting: under setting [17], 96 % of control; under setting [18], 95 % of control; under setting [19], 97 % of control.
In the case of `O=C(NC1COB(c2ccccc2)OC1c1ccc([N+](=O)[O-])cc1)C(Cl)Cl` (centres undefined), the T/C by setting is: (dose: 60.0 mg/kg/injection, schedule: Q01DX005 (ip), vehicle: Klucel (hydroxypropylcellulose) (HPC)) 97 % of control; (dose: 120.0 mg/kg/injection, schedule: Q01DX005 (ip), vehicle: Klucel (hydroxypropylcellulose) (HPC)) 97 % of control; (dose: 240.0 mg/kg/injection, schedule: Q01DX005 (ip), vehicle: Klucel (hydroxypropylcellulose) (HPC)) 99 % of control.
`COC(=O)c1nc(OC)nc(OC)c1C#CCOC1CCCCO1` (centres undefined): the T/C under setting [13] is 92 % of control, the T/C under setting [14] is 108 % of control, the T/C under setting [15] is 94 % of control and the T/C under setting [16] is 94 % of control.
Regarding `CC1=C(C)C(=O)OC(C(C)C2CCC3C4CC5OC56C(O)CCC(=O)C6(C)C4CCC23C)C1` (centres undefined), the T/C was 101 % of control (dose: 11.3 mg/kg/injection, schedule: Q01DX009 (ip), vehicle: Klucel (hydroxypropylcellulose) (HPC)); 101 % of control (dose: 22.6 mg/kg/injection, schedule: Q01DX009 (ip), vehicle: Klucel (hydroxypropylcellulose) (HPC)); 100 % of control (dose: 45.2 mg/kg/injection, schedule: Q01DX009 (ip), vehicle: Klucel (hydroxypropylcellulose) (HPC)).
Take `Cc1csc(=S)n1O`: the T/C reads like this: (dose: 60.0 mg/kg/injection, schedule: Q01DX005 (ip), vehicle: saline) 101 % of control; (dose: 120.0 mg/kg/injection, schedule: Q01DX005 (ip), vehicle: saline) 100 % of control; (dose: 240.0 mg/kg/injection, schedule: Q01DX005 (ip), vehicle: saline) 101 % of control.
